According to patent US9220706B2, “Inhibition of leukemic stem cells by PP2A activating agents” (Ohio State Innovation Foundation, priority 2012, dated 2015):
Where a name gives a salt, the structure may show the parent alone. Values belong to the molecule of their own block, whether it stands above or below them.

Key:
[1] = tested on: CFSE^max/CD34^+ CML cells; experiment: CFSE-mediated tracking of quiescent cells, CML; assay type: cell-based, human
Description: (§1) CFSE-mediated tracking of cell division. Carboxyfluorescein diacetate succinimidyl diester (CFSE)-stained cells (CellTrace CFSE Proliferation Kit: Invitrogen) were cultured in the presence of the indicated drugs (dosed at time zero and at day three), and the cells were harvested after 3 or 6 days in culture, and stained with anti-CD34 PE, Annexin-V V450, and the viability stain 7-AAD (BD Bioscience) to determine the number of viable quiescent cells (CFSEmax/CD34^+/7-AAD− cells) and the percentage of quiescent and apoptosis-committed cells (CFSEmax/CD34+/Annexin V+/7-AAD±). Cells were sorted into dividing and quiescent populations for Western blot analysis. For assessment of mouse quiescent leukemic HSCs, Lin- cells from 8 week-induced SCLtTA/BCR-ABL1 mice were CFSE-stained and used as described above. Quiescent cells (CFSE^max/CD34^+) were reported as a fraction of the initial number of CD34^+ cells.

[2] = tested on: CML cells (CFSE^max/CD34^+, CD34^+/CD38^−, CD34^+); experiment: Annexin-V/7-AAD apoptosis staining; assay type: cell-based, human; settings: for effect on FTY720-induced apoptosis of quiescent cells: CD34^+ CML cells, GSK-3β inhibitor with FTY720
Description: as §1

[3] = target: T1, PP2A (Homo sapiens, UniProt P67775); settings: Roberts et al., Cancer Res 2010; cited from earlier work
T1 construct: PP2Ac assays from whole cell lysates; endogenous in cells; host or cells: CD34+/CD38- and CD34+/CD38+ primary CML and normal bone-marrow cells; immunoprecipitated with Millipore PP2Ac antibody

[4] = target: T1, PP2A; experiment: PP2A phosphatase assay; assay type: cell-based
Description: PP2A phosphatase assay. PP2Ac assays from whole cell lysates were carried out using the PP2Ac immunoprecipitation phosphatase assay kit (Millipore). Briefly, protein lysates (50 μg) in 100 μl of 20 mM Hepes. pH 7.0, 100 mM NaCl, 5 μg of PP2Ac antibody (Millipore), and 25 μl of Protein A-agarose were added to 400 μl of 50 mM Tris, pH 7.0, 100 mM CaCl2, and IPs were carried out at 4° C. for 2 h. IPs were used in the phosphatase reaction according to the manufacturer's protocol.

[5] = target: S1PR1 (Homo sapiens, UniProt P21453); experiment: S1PR1 internalization; assay type: cell-based
[6] = tested on: B lymphocytes; experiment: B-lymphopenia induction; settings: in vivo
[7] = tested on: β-catenin; experiment: β-catenin immunofluorescence; assay type: cell-based, human; settings: CD34^+/CD38^− CML, leukemic LSK, and 32D-BCR/ABL cells
Source text: Immunofluorescence and proximity ligation assay. CD34^+/CD38^− cells from CML patient samples or LSK cells derived from induced leukemic mice were sorted, treated in liquid culture with the indicated drugs and cytospun onto glass slides. Slides were fixed in 3.7% formaldehyde, penneabilized with 0.05% Triton X-100, and stained with an Anti-®-catenin primary antibody (Cell signaling), a secondary goat F(ab′) anti-rabbit conjugated to Alexa Fluor 647, and the nuclear stain DAPI (Invitrogen); slides were mounted with Slowfade antifade reagent (Invitrogen). Microphotographs were obtained with a Zeiss LSM 510 confocal laser-scanning microscope with C-Apochromat 63/1.2 W objective. A minimum of three fields for each slide were acquired. For the Proximity Ligation Assay (PLA) CD34+/CD38− CML cells were treated, fixed, and permeabilized as described above. The slides were then simultaneously stained with a mix of mouse anti-PP2A (Millipore) and rabbit anti-SET (Globozyme) antibodies. The PLA procedure (Duolink; Olink Bioscience) was performed according to manufacturer instructions. An average of 20 z-stack ([…]) were captured with a Zeiss LSM 510 confocal laser-scanning microscope with C-Apochromat 63/1.2 W objective; at least three fields/slide were acquired. Three-dimensional projections were generated and positive signals/cell were calculated by ImageJ software (NIH).

[8] = tested on: CD34+/CD38− CML cells; experiment: CFC/replating assay, CML cells; assay type: cell-based, human
Description: (§2) Long term culture-initiating cell (LTC-IC) and Colony-forming cell (CFC)/replating assays. 2×10^6 mononuclear CML cells were cultured with a 1:1 mixture of irradiated (80 Gy) IL-3/G-CSF-producing M2-10B4 and IL-3/KL-producing SI/SI murine fibroblasts in MyeloCult H5100 (StemCell Technologies) supplemented with hydrocortisone. Drugs were present during the first week of culture. Medium was replaced after 7 days, followed by weekly half-medium changes. After 6 weeks, adherent and floating cells were harvested and 5×10^4 cells plated into MethoCult H4435. LTC-IC-derived colonies were scored after 14 days. For CFC/replating, individual 14-day colonies from 10^3-10^5 CD34+/CD38− CML or 0.2×10^3-10^3 leukemic LSK cells plated in 0.9% H4435 or M3234 MethoCult, respectively, containing KL, G-CSF, GM-CSF, IL-3, IL-6, and Epo were replated and scored 2 weeks later.

[9] = tested on: CML cells; experiment: Long term culture-initiating cell (LTC-IC) assay; assay type: cell-based, human; settings: drug during first week of 6-week culture, vs untreated
Description: as §2

[10] = tested on: β-catenin-driven (LEF/TCF) transcriptional activity; experiment: LEF/TCF reporter assay; assay type: cell-based, human; settings: CD34^+/CD38^− CML and 32D-BCR/ABL cells
Description: LEF/TCF reporter assay. CD34+/CD38− CML cells were transduced with pBAR or pfuBAR (negative control) ®-catenin lentiviral reporter constructs (54), puromycin-selected and treated with the indicated drugs. Luciferase was measured using the Bright-Glo Luciferase system (Promega).

[11] = tested on: normal CD34^+ progenitors; experiment: Toxicity to normal progenitors; assay type: cell-based, human; settings: at concentrations that impair Ph^+ HSC survival

T1 sequence (P67775 whole entry): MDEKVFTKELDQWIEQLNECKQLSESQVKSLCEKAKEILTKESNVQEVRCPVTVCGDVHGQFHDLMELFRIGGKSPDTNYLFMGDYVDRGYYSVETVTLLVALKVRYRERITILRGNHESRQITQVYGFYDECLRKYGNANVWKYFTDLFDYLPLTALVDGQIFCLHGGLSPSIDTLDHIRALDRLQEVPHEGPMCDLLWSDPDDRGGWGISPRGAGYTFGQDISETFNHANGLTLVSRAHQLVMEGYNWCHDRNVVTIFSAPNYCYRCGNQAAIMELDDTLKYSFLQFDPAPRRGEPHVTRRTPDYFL
S1PR1, sequence (P21453 whole entry, species assumed): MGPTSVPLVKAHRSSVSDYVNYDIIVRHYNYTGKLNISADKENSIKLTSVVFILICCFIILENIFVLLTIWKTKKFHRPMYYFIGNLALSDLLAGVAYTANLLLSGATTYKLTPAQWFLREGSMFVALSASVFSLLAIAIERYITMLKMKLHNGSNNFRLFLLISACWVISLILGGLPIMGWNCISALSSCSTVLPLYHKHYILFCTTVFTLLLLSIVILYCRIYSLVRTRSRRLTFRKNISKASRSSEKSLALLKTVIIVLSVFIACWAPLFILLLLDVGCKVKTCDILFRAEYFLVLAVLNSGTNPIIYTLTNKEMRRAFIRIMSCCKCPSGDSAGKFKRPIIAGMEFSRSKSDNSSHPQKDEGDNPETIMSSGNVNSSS

Compound: C=C1[C@@H](O)[C@@H]2O[C@]3(CC[C@H](/C=C/[C@@H](C)[C@@H]4CC(C)=C[C@@]5(O[C@H](C[C@@](C)(O)C(=O)O)CC[C@H]5O)O4)O3)CC[C@H]2O[C@@H]1[C@@H](O)C[C@H](C)[C@H]1O[C@@]2(CCCCO2)CC[C@H]1C [okadaic acid]
effect on FTY720-induced decrease of CFSE^max HSCs ([1]; 0.25 nM okadaic acid with FTY720): antagonized

Compound: [Cl-].[Li+] [LiCl, lithium chloride]
effect on FTY720-induced apoptosis of quiescent cells [2]: abrogated FTY720-induced apoptosis

Compound: Cn1cc(C2=C(c3ccc(Cl)cc3Cl)C(=O)NC2=O)c2ccccc21 [SB216763]
effect on FTY720-induced apoptosis of quiescent cells [2]: abrogated FTY720-induced apoptosis

Compound: CCCCCCCCc1ccc(CCC(N)(CO)COP(=O)(O)O)cc1 (stereo not shown) [FTY-P]
apoptosis of quiescent/HSC-enriched CML cells ([2]; CFSE^max/CD34^+ or CD34^+/CD38^− CML cells): failed to induce apoptosis
PP2A activity induction [3]: did not induce PP2A activity

PP2A activation [4]: activated PP2A
S1PR1 internalization [5]: without triggering S1PR1 internalization
Compound: CCCC(N)(CO)CCc1ccc(OCCCCCC(C)C)cc1 (stereo not shown) [OSU-2S]
effect on CML CFSE^max cells ([1]; CML n=9): significantly reduced
B-lymphopenia [6]: without triggering S1PR1 internalization or inducing B-lymphopenia

Compound: Cc1ccc(NC(=O)c2ccc(CN3CCN(C)CC3)cc2)cc1Nc1nccc(-c2cccnc2)n1 [imatinib, imatinib mesylate]
β-catenin degradation [7]: but not imatinib (n=3) induced β-catenin degradation

β-catenin transcriptional activity (LEF/TCF luciferase) [10]: markedly impaired
Compound: Cc1cnc(Nc2ccc(OCCN3CCCC3)cc2)nc1Nc1cccc(S(=O)(=O)NC(C)(C)C)c1 [TG101348]
reduction in replating efficiency [8]: ~75%
inhibition of LTC-ICs [9]: ~80%
decrease in CFSE^max (quiescent) CML HSCs ([1]; CFSE-labeled CD34^+ CML cells, FTY720 at 2.5 μM): 50%
toxicity to normal CD34^+ progenitors [11]: toxicity of TG101348 to normal CD34^+ progenitors

β-catenin transcriptional activity (LEF/TCF luciferase) [10]: markedly impaired
Compound: C=C[C@@]1(C)CC(=O)[C@@H]2[C@@]3(C)CCCC(C)(C)[C@@H]3[C@H](O)[C@H](OC(C)=O)[C@@]2(C)O1 [1,9-dideoxy-forskolin]
